Test [1] can be described thus: NIH-3T3 fibroblast cytotoxicity, dose response, cytotoxicity control, cell-based, fluorescence, Alamar Blue, secondary assay (AID 2327).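 Also: NIH-3T3 mouse fibroblasts cultured with fluconazole at 8 µg/mL.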 The format is functional.
Test [2] is described as follows: fluconazole-exposed Candida albicans growth modulators – fluorescence, retest, confirmation (AID 2467). The format is functional, cell-based.
Test [3] concerns the target T1, Serine/threonine-protein phosphatase (Candida dubliniensis (strain CD36 / CBS 7987 / NCPF 3949 / NRRLY-17841) (Yeast), UniProt B9W6M3).
T1 sequence (B9W6M3 whole entry): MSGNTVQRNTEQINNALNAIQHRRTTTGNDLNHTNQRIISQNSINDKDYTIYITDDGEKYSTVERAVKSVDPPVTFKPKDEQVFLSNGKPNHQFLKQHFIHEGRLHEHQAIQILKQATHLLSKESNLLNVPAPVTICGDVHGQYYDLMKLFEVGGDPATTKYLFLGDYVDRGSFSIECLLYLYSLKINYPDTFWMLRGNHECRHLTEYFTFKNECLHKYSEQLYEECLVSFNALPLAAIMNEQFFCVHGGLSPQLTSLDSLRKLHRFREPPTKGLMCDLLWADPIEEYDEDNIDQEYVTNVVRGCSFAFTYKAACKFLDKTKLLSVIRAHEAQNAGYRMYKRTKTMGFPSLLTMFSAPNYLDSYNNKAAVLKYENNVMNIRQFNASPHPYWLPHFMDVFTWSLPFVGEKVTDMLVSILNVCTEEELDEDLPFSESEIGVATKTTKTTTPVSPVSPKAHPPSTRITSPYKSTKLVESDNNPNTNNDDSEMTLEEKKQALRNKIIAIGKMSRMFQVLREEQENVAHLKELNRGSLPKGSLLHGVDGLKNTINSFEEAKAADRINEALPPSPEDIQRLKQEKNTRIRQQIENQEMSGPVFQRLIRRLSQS
Description: blockers of CaCl2-induced CDRE-lacZ signaling – S. cerevisiae, luminescence, secondary, dose response (AID 2388).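 Also: yeast reporter cells carrying a calcineurin-responsive lacZ construct stimulated with calcium chloride; luminescent beta-galactosidase reporter signal in whole cells rather than isolated phosphatase activity; potency for inhibition where a drop in reporter signal means calcineurin blockade.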 The class given is functional, cell-based.

For test [4], the target named is ATP-dependent molecular chaperone HSP82 (Candida albicans (strain WO-1) (Yeast), UniProt C4YTQ8). Description: steroid-induced GRE reporter decrease in yeast – S. cerevisiae, luminescence, Hsp90 inhibitor project, dose response (AID 2400).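 Also: beta-galactosidase luminescence from glucocorticoid response element reporter as proxy for Hsp90 function; inhibitor potency where signal loss means Hsp90 inhibition.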 The format is functional, cell-based.
ATP-dependent molecular chaperone HSP82, sequence (C4YTQ8 whole entry): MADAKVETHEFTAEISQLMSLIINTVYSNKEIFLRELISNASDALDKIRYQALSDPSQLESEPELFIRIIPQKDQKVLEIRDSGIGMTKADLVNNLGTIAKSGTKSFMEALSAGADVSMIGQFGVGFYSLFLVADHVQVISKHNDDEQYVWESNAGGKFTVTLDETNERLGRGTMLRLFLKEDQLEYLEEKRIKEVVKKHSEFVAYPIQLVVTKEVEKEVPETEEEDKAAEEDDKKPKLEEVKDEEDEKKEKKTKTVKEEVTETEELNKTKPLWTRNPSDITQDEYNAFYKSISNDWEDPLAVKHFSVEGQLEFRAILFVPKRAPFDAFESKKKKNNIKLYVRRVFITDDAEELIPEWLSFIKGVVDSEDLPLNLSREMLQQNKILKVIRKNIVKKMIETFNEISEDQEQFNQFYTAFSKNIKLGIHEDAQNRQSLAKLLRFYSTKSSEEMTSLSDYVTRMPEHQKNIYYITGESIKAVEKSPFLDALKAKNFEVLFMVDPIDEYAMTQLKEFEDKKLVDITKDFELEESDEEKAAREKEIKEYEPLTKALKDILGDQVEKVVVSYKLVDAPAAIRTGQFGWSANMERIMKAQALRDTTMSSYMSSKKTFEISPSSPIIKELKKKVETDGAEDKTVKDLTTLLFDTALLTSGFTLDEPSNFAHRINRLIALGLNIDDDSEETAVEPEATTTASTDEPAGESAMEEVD
The target of the next test is Prothrombin (Homo sapiens, UniProt P00734). In words: Thrombin 1536 HTS Dose Response Confirmation. [Related pubchem assays: 1046 (Thrombin 1536 HTS; hits were confirmed in this assay)]. The class given is functional.
The target in another test is T2, Coagulation factor XII (Homo sapiens, UniProt P00748).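 Also: activated factor XIIa alpha cleaving a fluorogenic AMC peptide substrate; inhibitor potency from loss of enzyme activity.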
T2 sequence (P00748 whole entry): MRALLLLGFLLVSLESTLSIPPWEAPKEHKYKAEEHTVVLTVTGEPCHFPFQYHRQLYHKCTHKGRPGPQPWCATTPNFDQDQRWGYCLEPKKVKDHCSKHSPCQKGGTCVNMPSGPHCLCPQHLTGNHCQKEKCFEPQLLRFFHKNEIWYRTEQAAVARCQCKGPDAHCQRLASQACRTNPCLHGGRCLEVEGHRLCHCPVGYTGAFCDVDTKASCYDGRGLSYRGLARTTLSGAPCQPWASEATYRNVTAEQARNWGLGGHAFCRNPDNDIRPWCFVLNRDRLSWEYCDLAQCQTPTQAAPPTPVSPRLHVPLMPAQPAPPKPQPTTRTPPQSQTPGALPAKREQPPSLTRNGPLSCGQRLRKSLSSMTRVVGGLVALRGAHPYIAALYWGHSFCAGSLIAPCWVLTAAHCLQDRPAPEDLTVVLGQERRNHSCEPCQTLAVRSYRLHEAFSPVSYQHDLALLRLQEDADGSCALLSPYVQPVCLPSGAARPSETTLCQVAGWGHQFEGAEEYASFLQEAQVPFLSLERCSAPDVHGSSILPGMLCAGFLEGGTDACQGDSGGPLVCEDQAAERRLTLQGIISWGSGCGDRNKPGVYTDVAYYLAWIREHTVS
The format is functional.

The subject of test [5] is Streptococcus sp. 'group A'. In words: Streptococcus pyogenes SK(-)GAS viability under kanamycin – luminescence, BacTiterGlo, confirmation, counter-screen for streptokinase expression inhibitor project, dose response (AID 1900). The class given is functional, organism-based.
The target of the next test is T3, Streptokinase A (Streptococcus pyogenes serotype M1, UniProt P10520).
T3 sequence (P10520 whole entry): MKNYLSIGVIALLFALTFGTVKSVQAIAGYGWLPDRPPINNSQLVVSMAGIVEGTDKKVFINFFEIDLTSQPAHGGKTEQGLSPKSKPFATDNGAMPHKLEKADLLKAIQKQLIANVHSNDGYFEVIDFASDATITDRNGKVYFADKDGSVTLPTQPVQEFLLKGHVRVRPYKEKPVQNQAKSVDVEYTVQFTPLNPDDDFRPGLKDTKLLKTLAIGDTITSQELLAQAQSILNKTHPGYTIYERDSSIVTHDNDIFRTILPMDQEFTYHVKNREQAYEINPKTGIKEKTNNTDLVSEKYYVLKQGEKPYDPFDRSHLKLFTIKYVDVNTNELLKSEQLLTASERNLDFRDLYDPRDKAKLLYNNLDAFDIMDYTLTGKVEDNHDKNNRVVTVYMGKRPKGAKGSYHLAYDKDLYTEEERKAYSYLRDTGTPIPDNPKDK
In words: viability-normalized secreted streptokinase activity reduction – plasminogen activation absorbance, OD405, dose response (AID 1914).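 Also: secreted streptokinase activity via plasminogen activation per viability signal from cell pellet.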 The format is functional, Streptococcus pyogenes M1 GAS.

The test system of a further test is Streptococcus. Description: GAS UMAA2166 growth inhibition – luminescence, BacTiterGlo, counter-screen for streptokinase expression inhibitor project, dose response (AID 1915).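 Also: potency for reduction of bacterial viability or growth.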 The class given is functional, organism-based.
The target of a further test is Nonstructural protein 1 (Influenza A virus, UniProt Q194T2). The format is functional, Influenza A virus (A/California/07/2009(H1N1)).
Nonstructural protein 1, sequence (Q194T2 whole entry): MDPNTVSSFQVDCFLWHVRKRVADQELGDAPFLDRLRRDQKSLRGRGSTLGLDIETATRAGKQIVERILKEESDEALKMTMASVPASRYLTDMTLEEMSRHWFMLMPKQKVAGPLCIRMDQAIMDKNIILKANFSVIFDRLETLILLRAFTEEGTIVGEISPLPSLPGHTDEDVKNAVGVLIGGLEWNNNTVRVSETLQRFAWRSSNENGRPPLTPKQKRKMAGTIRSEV
A further test concerns H9c2. In words: cells. The format is functional, cell-based. To be noted: Rattus norvegicus, H9c2, Myocardium.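 Also: confirmatory concentration-response retest of ultra-high-throughput screening hits for modulation of myocardial damage; cell death induced by hydrogen peroxide oxidative stress; compound pretreatment for 60 min then peroxide exposure for 2 h; potency is for protecting the cells against peroxide damage rather than for killing them.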
The subject of another test is Vero. In words: cells. The class given is functional. To be noted: Chlorocebus sabaeus.
Test [6] concerns the target T4, Mannose-6-phosphate isomerase (Homo sapiens, UniProt P34949).
T4 sequence (P34949 whole entry): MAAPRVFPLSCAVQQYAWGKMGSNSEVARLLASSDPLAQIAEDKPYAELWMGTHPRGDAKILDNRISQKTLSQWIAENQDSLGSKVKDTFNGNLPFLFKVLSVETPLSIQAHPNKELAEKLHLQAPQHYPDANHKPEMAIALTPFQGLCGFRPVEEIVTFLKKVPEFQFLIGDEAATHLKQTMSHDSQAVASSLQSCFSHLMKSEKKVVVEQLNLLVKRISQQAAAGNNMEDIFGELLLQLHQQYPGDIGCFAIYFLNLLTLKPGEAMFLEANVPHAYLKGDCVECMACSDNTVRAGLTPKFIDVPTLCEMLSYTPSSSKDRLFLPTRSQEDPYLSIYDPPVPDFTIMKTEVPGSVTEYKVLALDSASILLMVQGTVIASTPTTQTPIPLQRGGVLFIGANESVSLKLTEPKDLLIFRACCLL
In words: MPI inhibition at elevated mannose 6-phosphate – biochemical, fluorescence intensity, high mannose 6-phosphate, primary screen (AID 1220).

The target of the next test is Cytochrome P450 2C19 (Homo sapiens, UniProt P33261). In words: Cytochrome panel assay with activity outcomes. Panel member name: p450-cyp2c19 Compounds with AC50 equal or less than 10 uM are considered active. The format is functional. To be noted: read-out: AC50.
Cytochrome P450 2C19, sequence (P33261 whole entry): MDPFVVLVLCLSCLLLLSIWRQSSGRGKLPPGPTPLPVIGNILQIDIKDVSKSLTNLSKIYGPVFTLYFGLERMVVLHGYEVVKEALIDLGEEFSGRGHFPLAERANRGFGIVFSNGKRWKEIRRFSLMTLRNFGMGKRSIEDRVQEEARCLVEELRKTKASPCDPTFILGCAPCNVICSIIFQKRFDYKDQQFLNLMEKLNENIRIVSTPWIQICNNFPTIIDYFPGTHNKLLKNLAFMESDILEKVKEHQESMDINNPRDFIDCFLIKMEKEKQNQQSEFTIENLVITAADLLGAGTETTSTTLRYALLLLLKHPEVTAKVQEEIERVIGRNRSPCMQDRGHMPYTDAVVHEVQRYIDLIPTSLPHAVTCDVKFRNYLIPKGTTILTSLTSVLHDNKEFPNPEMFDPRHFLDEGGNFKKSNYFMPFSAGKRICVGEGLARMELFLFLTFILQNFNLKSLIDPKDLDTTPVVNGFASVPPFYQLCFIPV
Test [7] concerns the target T5, Histone-lysine N-methyltransferase NSD2 (Homo sapiens, UniProt O96028).
T5 sequence (O96028 whole entry): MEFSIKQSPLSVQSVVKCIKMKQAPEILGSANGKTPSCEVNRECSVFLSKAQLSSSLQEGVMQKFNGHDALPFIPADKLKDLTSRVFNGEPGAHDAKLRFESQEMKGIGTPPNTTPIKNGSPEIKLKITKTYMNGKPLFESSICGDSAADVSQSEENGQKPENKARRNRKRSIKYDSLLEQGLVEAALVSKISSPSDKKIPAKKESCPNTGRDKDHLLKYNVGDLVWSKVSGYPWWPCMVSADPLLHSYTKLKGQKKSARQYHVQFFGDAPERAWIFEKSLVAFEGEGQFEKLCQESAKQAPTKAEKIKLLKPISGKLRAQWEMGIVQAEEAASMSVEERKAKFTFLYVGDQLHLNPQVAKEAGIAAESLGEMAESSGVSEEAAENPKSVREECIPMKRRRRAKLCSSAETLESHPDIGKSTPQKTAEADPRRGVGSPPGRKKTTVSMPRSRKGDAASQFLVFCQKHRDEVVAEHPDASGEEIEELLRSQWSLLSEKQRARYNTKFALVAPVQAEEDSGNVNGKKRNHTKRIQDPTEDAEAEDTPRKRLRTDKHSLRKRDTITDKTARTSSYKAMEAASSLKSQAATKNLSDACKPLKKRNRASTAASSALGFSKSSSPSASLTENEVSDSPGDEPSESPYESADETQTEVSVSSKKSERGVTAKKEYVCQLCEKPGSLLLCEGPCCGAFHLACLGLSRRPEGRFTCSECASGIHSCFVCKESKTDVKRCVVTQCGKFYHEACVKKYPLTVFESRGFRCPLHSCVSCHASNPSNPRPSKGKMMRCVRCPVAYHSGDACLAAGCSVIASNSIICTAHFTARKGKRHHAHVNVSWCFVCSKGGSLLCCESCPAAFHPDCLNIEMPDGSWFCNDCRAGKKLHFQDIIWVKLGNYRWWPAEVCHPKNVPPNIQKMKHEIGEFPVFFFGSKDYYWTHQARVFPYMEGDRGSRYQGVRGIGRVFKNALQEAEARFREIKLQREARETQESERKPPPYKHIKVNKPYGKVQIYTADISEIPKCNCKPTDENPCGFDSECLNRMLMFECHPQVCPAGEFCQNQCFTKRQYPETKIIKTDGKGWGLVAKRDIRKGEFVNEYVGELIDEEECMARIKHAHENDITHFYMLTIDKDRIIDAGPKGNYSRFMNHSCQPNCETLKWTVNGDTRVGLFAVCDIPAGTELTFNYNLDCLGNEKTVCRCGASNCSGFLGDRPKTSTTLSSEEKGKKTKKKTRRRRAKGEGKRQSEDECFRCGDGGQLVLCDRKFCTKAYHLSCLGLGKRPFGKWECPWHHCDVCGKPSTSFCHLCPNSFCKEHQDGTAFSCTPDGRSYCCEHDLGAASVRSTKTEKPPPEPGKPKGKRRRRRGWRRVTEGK
The class given is biochemical.

A further test deals with Cytochrome P450 2D6 (Homo sapiens, UniProt P10635).
Cytochrome P450 2D6, sequence (P10635 whole entry): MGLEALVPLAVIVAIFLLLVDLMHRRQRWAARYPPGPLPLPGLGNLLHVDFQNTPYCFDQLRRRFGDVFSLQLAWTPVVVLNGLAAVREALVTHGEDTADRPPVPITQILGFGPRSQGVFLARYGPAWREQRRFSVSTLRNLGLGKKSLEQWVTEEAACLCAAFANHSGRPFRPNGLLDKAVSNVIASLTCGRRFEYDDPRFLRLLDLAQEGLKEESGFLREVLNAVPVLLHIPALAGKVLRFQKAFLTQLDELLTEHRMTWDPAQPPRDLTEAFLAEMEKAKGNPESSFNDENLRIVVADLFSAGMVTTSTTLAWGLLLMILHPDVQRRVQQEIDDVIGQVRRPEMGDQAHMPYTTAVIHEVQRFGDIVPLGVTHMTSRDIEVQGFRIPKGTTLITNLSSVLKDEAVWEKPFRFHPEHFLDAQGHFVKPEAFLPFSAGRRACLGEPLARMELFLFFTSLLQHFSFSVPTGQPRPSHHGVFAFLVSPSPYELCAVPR
For a further test, the target named is Cytochrome P450 2C9 (Homo sapiens, UniProt P11712).
Cytochrome P450 2C9, sequence (P11712 whole entry): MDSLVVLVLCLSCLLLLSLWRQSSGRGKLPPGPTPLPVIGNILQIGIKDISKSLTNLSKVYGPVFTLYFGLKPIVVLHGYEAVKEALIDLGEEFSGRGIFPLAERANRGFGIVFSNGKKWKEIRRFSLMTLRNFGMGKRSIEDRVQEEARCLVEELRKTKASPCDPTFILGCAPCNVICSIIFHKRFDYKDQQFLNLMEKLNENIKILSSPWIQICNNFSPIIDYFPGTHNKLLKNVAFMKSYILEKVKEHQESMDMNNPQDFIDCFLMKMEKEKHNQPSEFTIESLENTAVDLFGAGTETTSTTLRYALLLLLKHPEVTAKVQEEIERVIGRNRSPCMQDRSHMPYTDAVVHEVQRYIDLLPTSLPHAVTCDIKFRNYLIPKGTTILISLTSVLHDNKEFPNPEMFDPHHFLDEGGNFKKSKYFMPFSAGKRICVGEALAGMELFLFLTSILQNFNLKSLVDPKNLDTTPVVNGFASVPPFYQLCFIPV
Test [8] can be described thus: cells. The class given is functional, cell-based.
Test [9] in a line: cells. The format is functional, cell-based. This is another data set of the same source.

Activity calls are given as the source filed them.

On to `COc1ccc(-n2nc(C(=O)NCC(=O)N3CCN(c4ccc(F)cc4)CC3)c3ccccc3c2=O)c(OC)c1`, for which the EC50 in [1] is > 150 µM (inactive); in test [2] it was 0.642 µM (active); in [3], > 180 µM (inactive); in test [4], > 150 µM (inactive).
Turning to `Cc1nn(C)c(C)c1S(=O)(=O)N1CCC(C(=O)NCCC2=CCCCC2)CC1`, the concentration for half-maximal inhibition (IC50) at Prothrombin was > 50 µM (not active); on Coagulation factor XII, > 50 µM (inactive).
`Cc1cc(C)n(-c2nnc(C)n2NS(=O)(=O)c2ccc(F)cc2)n1`: the IC50 at Coagulation factor XII is > 50 µM (inactive).
Consider `CS(=O)(=O)c1ccc2nc(NC(=O)c3ccc(NS(=O)(=O)c4cccc([N+](=O)[O-])c4)cc3)sc2c1`, for which the concentration giving a half-maximal response (EC50) in test [5] was 2.32 µM (active); on Streptokinase A it was > 150 µM (not active); with Streptococcus it was 12 µM (active). The IC50 at Prothrombin is > 50 µM (not active).
As to `O=C(O)Cc1ccc(NC(=O)CCN2C(=O)c3ccc([N+](=O)[O-])cc3C2=O)cc1`, the IC50 on Coagulation factor XII is > 50 µM (inactive).
For the compound `CCOc1ccc(OCC)c(NC(=O)CCS(=O)(=O)c2ccc(Br)s2)c1`, the IC50 on Prothrombin was 3.1 µM (active).
Turning to `O=C1SCCC1NC(=O)C(c1ccccc1)c1ccccc1` (stereo unspecified), the IC50 at Coagulation factor XII is > 50 µM (inactive).
With `Cc1nnc2c(-c3ccccc3)nc3ccccc3n12`, the half-maximal inhibitory concentration (IC50) against Prothrombin was > 50 µM (not active).
On to `O=C(c1cc2ccccc2cc1O)N1CCN(c2ccccc2O)CC1`, for which the EC50 in test [1] was > 150 µM (inactive); in [5], 24.3 µM (active); on Streptokinase A, > 150 µM (not active); in test [2], 0.274 µM (active); in test [3], > 180 µM (inactive); with Streptococcus, 110 µM (active). In addition, the EC50 in test [4] is > 150 µM (inactive).
Regarding `Cc1ccccc1NC(=O)Nc1ccccc1Br`, the IC50 against Prothrombin is reported as > 50 µM (not active).
Take `O=[N+]([O-])c1ccc(O)c(Nc2c([N+](=O)[O-])ccc3nonc23)c1`: the half-inhibitory concentration (IC50) on Nonstructural protein 1 was 64.5 µM (active).
Regarding `O=c1oc(-c2ccco2)nc2c1cnn2-c1ccccc1`, the concentration for half-maximal inhibition (IC50) on Coagulation factor XII was 18.2 µM (active); in the test on H9c2 it was > 79 µM (inactive).
`O=C(CC1CCCC1)NNC(=O)c1ccccc1O`: the CC50 with Vero is > 25 µM (active).
On to `Nc1cccc2cnccc12`, for which the IC50 in [6] is recorded as > 50 µM (not active). For the same compound, the AC50 on Cytochrome P450 2C19 was 20 µM (inconclusive); in test [7], > 20 µM (inactive); at Cytochrome P450 2D6, 22.4 µM (inconclusive); on Cytochrome P450 2C9 it was 28.2 µM (inconclusive).
For `Cc1[nH]n(-c2ccccc2)c(=O)c1N=Nc1ccc2c(c1)OCCO2`, the EC50 in the test “cells [8]” and in the test “cells [9]” was > 350 µM (not active) each time. Also, on Nonstructural protein 1, the IC50 was 41.2 µM (active).
Take `O=C(CCc1ccc(O)cc1)N/N=C/c1coc2ccccc2c1=O`: the IC50 on Prothrombin was 6.25 µM (active).

For the origin of these results see ChEMBL document CHEMBL1201862, “PubChem BioAssay data set” (2004).
